Assay results reported in EP1939270B1, “Demetallation of oil and hydrocarbon cuts and use of same” (TOTAL RAFFINAGE MARKETING, priority 2006, dated 2008).

Assays:
[1] = Demetallation of model mixture (DAO + NiETIO + OEPVO): catalysed oxidation, metal removal, residual vanadium by X-ray fluorescence; conditions: by mass
Excerpt: (§1) Le procédé de démétallation selon l'invention a été testé sur un mélange modèle de fractions pétrolières lourdes, composé d'un produit pétrolier ne contenant pas de nickel ni de vanadium, auxquelles ont été ajoutées des porphyrines modèles de nickel et de vanadium (exemples 1 à 4, 6 et 7).
(§2) La fraction pétrolière utilisée dans les exemples (DAO) est une huile désasphaltée au solvant, issue d'un résidu sous vide du brut Safaniya d'Arabie Saoudite. Il s'agit donc d'un résidu sous vide dépourvu d'asphaltènes, et donc de pétroporphyrines, pauvre en nickel (<0,2 ppm) et en vanadium (<0,1 ppm).
(§3) Les porphyrines modèles utilisées sont l'étioporphyrine de nickel (NiETIO) et l'octaéthylporphyrine de vanadyle (OEPVO), qui sont disponibles commercialement. Leurs formules sont les suivantes : [drawing 5] […]
(§4) Les différentes fractions sont ensuite évaporées afin de recueillir la fraction pétrolière de 2,02 g (soit un bilan matière de 97 %) qui est ensuite analysée par spectrométrie à fluorescence X pour en déceler 31 ppm de nickel et 54 ppm de Vanadium. […]
(§5) Les différentes fractions sont ensuite évaporées afin de recueillir la fraction pétrolière avec un bilan matière de 97% (en masse) et des teneurs en Nickel et Vanadium analysées par spectrométrie à fluorescence X de moins de 10 ppm (en masse). […]

[2] = Demetallation of model mixture (DAO + NiETIO + OEPVO): catalysed oxidation, metal removal, residual nickel by X-ray fluorescence; conditions: by mass
Excerpt: as §1, §2, §3, §4, §5

For Clc1cccc(Cl)c1-c1c2nc(c(-c3c(Cl)cccc3Cl)c3ccc([n-]3)c(-c3c(Cl)cccc3Cl)c3nc(c(-c4c(Cl)cccc4Cl)c4ccc1[n-]4)C=C3)C=C2.[Mn+2] [Exemple 4, méso-tétra-(2,6-dichloro) phényl porphyrinede manganèse], the “Après traitement V Taux d'élimination” value [1] was 96,1% and the “Après traitement Ni Taux d'élimination” value [2] was 93,8%.
